Measurements taken from US20260248722A1, “METHOD FOR CARTILAGE REGENERATION AND REGROWTH FOLLOWING INJURY” (ELUCIDERM INC., priority 2021, published 2026).

What was measured:
[1] = tested on: 2 mm biopsy punch wound in the center of the cartilaginous region of each ear; assay: Cartilage regrowth in mouse ears after 2 mm biopsy punch wound (Example 2); assay type: in vivo, C57Bl/6J mice; conditions: XAV939 in DMSO every day for 30 days
From the text: C57Bl/6J mice were purchased from The Jackson Laboratory (Bar Harbor, ME, USA) and maintained by PPY. C57Bl/6J mice (at least 3 months of age) were anesthetized with 3-5% isoflurane in O2 administered using Tabletop Laboratory Animal Anesthesia System (VetEquip Inc., Pleasanton, CA, USA). A 2 mm biopsy punch wound was made in the center of the cartilaginous region of each ear using a disposable biopsy punch (Acuderm Inc., Fort Lauderdale, FL, USA) as described previously (Rai, M. F. et al, 2021, Arthritis Rheum., 64:2300-2310). […] In order to quantify closure of the wounds, ears were excised following mouse sacrifice, fixed and placed on microscope slides for examination by way of the digital camera being affixed to a Micromaster Inverted microscope (Thermo Fisher Scientific, Waltham, MA, USA). […] Sections of the tissue were then stained with Trichome blues, imaged and analyzed by way of an Olympus DP71 microscope camera (Olympus America, Center Valley, PA, USA). […] For quantification of wound closure, ears were excised after the mice were sacrificed, placed on microscope slides (Denville Scientific, South Plainfield, NJ, USA) and imaged using Nikon Coolpix 8700 affixed to Micromaster Inverted microscope (Thermo Fisher Scientific, Waltham, MA, USA). […]

ear punch wound = conditions: topical application, dissolved in DMSO; cited from earlier work
CRE, F-κB, or TGF-β = conditions: cited from earlier work
[2] = tested on: 2 mm biopsy punch wound in the center of the cartilaginous region; conditions: XAV939 dissolved in DMSO; cited from earlier work
[3] = cited from earlier work

Oc1nc(-c2ccc(C(F)(F)F)cc2)nc2c1CSCC2 [XAV939, 3,5,7,8-Tetrahydro-2-[4-(trifluoromethyl)phenyl]-4H-thiopyrano[4,3-d]pyrimidin-4-one]
nature and character of the cartilage regrowth in the wounds, compared to DMSO control [1]: improved | fibrosis (scarring) (ear punch wound): reduced fibrosis | rate of wound closure (ear punch wound): significantly increased | effect on CRE, F-κB, or TGF-β (CRE, F-κB, or TGF-β): does not affect | cartilage regeneration and healing following acute injury [2]: increased cartilage regeneration and healing | aqueous solubility [3]: < 1 µg/mL
